Here are results for 19 compounds from ChEMBL document CHEMBL6121013, “Novel antimalarial 3-substituted quinolones isosteres with improved pharmacokinetic properties” (Eur J Med Chem, 2025).

For orientation: IC50 means the midpoint of a concentration-inhibition curve. In general, fraction unbound refers to free concentration divided by total concentration. As usually defined, the logD is lipophilicity at a set pH, counting ionised and neutral species. Usually solubility stands for how much of the substance goes into solution per volume. The clearance is the rate of elimination divided by the concentration. A high value points to efficient removal. A word on the bioavailability: it is dose-corrected exposure relative to a reference, in per cent. Low values mean little systemic uptake, high ones much systemic uptake. The term half-life denotes how long it takes for the measured level to halve. Read a low half-life as rapid decline. In general, Cmax refers to the peak of the concentration-time curve. Usually AUC stands for the area under the concentration-time curve, a measure of exposure. High values mean more exposure, low ones less exposure.

Values after ≈ are worked out from the molar mass of the structure shown. Where only a bound is given, the exact number is not on record here.

The subject of data set [1] is Plasmodium falciparum. Nature of the data set: Antimalarial activity against chloroquine-resistant Plasmodium falciparum W2 assessed as reduction in malarial growth incubated for 72 hrs by Spectrophotometric analysis. It counts as functional, organism-based. The note with it: W2, 72 h.
The nature of data set [2]: Plasma protein binding in human assessed as free fraction incubated for 6 hrs by LC-MS/MS analysis. It counts as ADME, cell-free.
A short description of data set [3]: Lipophilicity, logD of the compound at pH 7.4 by shake flask method. Format: physicochemical. Conditions: buffer.
Data set [4] is described as follows: Solubility of the compound at pH 7.4. It counts as physicochemical. Conditions: buffer.
Data set [5] can be described thus: Metabolic stability in rat hepatocytes assessed as intrinsic clearance measured at 10^6 cells incubated for 5 to 120 mins by LC-MS/MS analysis. Conditions: time 5-120 min, read-out: CLH. Format: ADME, cell-based, Hepatocyte.
Data set [6] is described as follows: Metabolic stability in human liver microsomes assessed as intrinsic clearance incubated for 0.5 to 30 mins by LC-MS/MS analysis. The note with it: time 0.5-30 min, read-out: CLH. It counts as ADME, Microsome. In general terms: Liver microsomes are vesicles of endoplasmic reticulum, rich in cytochrome P450 enzymes.
Data set [7] is described as follows: Clearance in mouse administered intravenously. It counts as ADME. Conditions: in vivo, route iv.
Data set [8] can be described thus: Oral bioavailability in male CD1 mouse at 50 mg/kg by LC-MS analysis. It counts as ADME, organism-based. Conditions: in vivo.
A short description of data set [9]: Half life in male CD1 mouse at 2 mg/kg, iv by LC-MS analysis. It counts as ADME, organism-based. The note with it: in vivo.
Data set [10] is described as follows: Clearance in male CD1 mouse at 2 mg/kg, iv by LC-MS analysis. It counts as ADME, organism-based. Conditions: in vivo.
Data set [11] is described as follows: Cmax in male CD1 mouse at 50 mg/kg, po by LC-MS analysis. It counts as ADME, organism-based. Conditions: in vivo.
The nature of data set [12]: AUC in male CD1 mouse at 50 mg/kg, po by LC-MS analysis. Format: ADME, organism-based. Conditions: in vivo.

`Cc1[nH]c2c(c(=O)c1-c1ccc(F)cc1)CC(F)(F)CC2`: in data set [1], the half-maximal inhibitory concentration (IC50) is 597 nM. Also, the fraction unbound at 6 h in [2] turned out to be 0.3. In [3], this compound returned a logD of 1.7. The compound further displayed a solubility in data set [4] of 68 µM (≈ 19.9 µg/mL). Also, the hepatocyte CLint in [5] was less than 1 µL/min/1e6 cells. In data set [6], the microsomal CLint was less than 3 µL/min/mg.

Take `Cc1[nH]c2c(c(=O)c1-c1ccc(F)cc1)CCOC2`: the concentration for half-maximal inhibition (IC50) in data set [1] was found to be 8410 nM.

`Cc1[nH]c2c(c(=O)c1-c1ccc(F)cc1)CCCCC2`: the IC50 in [1] worked out at 4970 nM.

With `Cc1[nH]c2c(c(=O)c1-c1ccc(F)cc1)CCCC2`, the IC50 in data set [1] is 4800 nM.

Consider `Cc1[nH]c2c(c(=O)c1-c1ccc(-c3ccc(OC(F)(F)F)cc3)nc1)CCCC2`, for which, in [1], the IC50 was found to be 1150 nM.

`COc1cc2[nH]c(C)c(-c3ccc(Oc4ccc(OC(F)(F)F)cc4)cc3)c(=O)c2cc1Cl` yielded a clearance in data set [7] of 0.7 mL/min/kg.

Take `Cc1[nH]c2c(c(=O)c1-c1ccc(Cl)cc1)CC(F)(F)CC2`: the 50% inhibitory concentration (IC50) in data set [1] was found to be 235 nM. For the same compound, the fraction unbound at 6 h in data set [2] worked out at 0.12. The same compound came in with a pH-dependent lipophilicity (logD) in data set [3] of 2.7. In addition, in data set [4], the concentration in solution (solubility) was 20 µM (≈ 6.19 µg/mL). This compound also gave a bioavailability in data set [8] of 23.4%. This compound also gave a half-life in [9] of 6.39 h. Further, the clearance in [10] came to 0.47 mL/min/kg. Also, the highest level in data set [11] (Cmax) was 28900 ng/mL. Besides, the area under the curve (AUC) in data set [12] was found to be 405 µg·h/mL. The hepatocyte CLint in data set [5] was less than 1 µL/min/1e6 cells. Further, the microsomal CLint in [6] was less than 3 µL/min/mg.

As to `Cc1[nH]c2c(c(=O)c1-c1ccc(Oc3ccc(OC(F)(F)F)cc3)cc1)CCCCC2`, in data set [1], the IC50 was determined as 1520 nM.

Regarding `Cc1[nH]c2c(c(=O)c1-c1ccc(Oc3ccc(OC(F)(F)F)cc3)cc1)CC(F)(F)CC2`, the concentration for half-maximal inhibition (IC50) in data set [1] came out at 285 nM. For the same compound, in data set [2], the unbound share (fraction unbound) at 6 h stood at 0.0029. The same compound yielded a logD in [3] of 3.9. Also, in data set [4], the solubility was found to be 2 µM (≈ 0.903 µg/mL). Also, the hepatocyte CLint in data set [5] was less than 1 µL/min/1e6 cells. The microsomal CLint in data set [6] was less than 3 µL/min/mg.

As for `Cc1[nH]c2c(c(=O)c1-c1ccc(Cl)cc1)CCCC2`, the concentration for half-maximal inhibition (IC50) in data set [1] stood at 956 nM.

Consider `Cc1[nH]c2c(c(=O)c1-c1ccc(Oc3ccc(OC(F)(F)F)cc3)cc1)CCCC2`, for which the IC50 in [1] stood at 157 nM. In data set [2], the free fraction (fraction unbound) at 6 h came out at 0.0013. Moreover, the log distribution coefficient (logD) in data set [3] is 4.5. The compound also registered a solubility in data set [4] of 0.2 µM (≈ 0.0831 µg/mL). Further, the hepatocyte CLint in [5] was 9.05 µL/min/1e6 cells. In data set [6], the microsomal CLint is less than 3 µL/min/mg.

Take `Cc1[nH]c2c(c(=O)c1-c1ccc(Oc3ccc(OC(F)(F)F)cc3)cc1)CCOC2`: in data set [1], the concentration for half-maximal inhibition (IC50) stood at 446 nM.

Take `Cc1[nH]c2c(c(=O)c1-c1ccc(Cl)cc1)COCC2`: in [1], the IC50 was greater than 10000 nM.

In the case of `Cc1[nH]c2ccccc2c(=O)c1-c1ccc(Oc2ccc(OC(F)(F)F)cc2)cc1`, the concentration for half-maximal inhibition (IC50) in data set [1] stood at 92 nM. In addition, in data set [2], the unbound share (fraction unbound) at 6 h was 0.0009. In data set [3], this compound returned a logD of 4.9. For the same compound, the concentration in solution in data set [4] (solubility) came to 3 µM (≈ 1.23 µg/mL). In addition, the hepatocyte CLint in data set [5] was 6.17 µL/min/1e6 cells. Moreover, in data set [6], the microsomal CLint was less than 3 µL/min/mg.

As for `Cc1[nH]c2c(c(=O)c1-c1ccc(F)cc1)COCC2`, the IC50 in [1] is greater than 10000 nM.

Take `Cc1[nH]c2c(c(=O)c1-c1ccc(OC(F)(F)F)cc1)CCCC2`: the IC50 in [1] was 354 nM. The fraction unbound at 6 h in data set [2] worked out at 0.15. In [3], this compound came in with a log distribution coefficient (logD) of 3.3. Also, the solubility in data set [4] was 14 µM (≈ 4.53 µg/mL). The hepatocyte CLint in data set [5] turned out to be 1.14 µL/min/1e6 cells. Also, the microsomal CLint in data set [6] worked out at 25.6 µL/min/mg.

Regarding `Cc1[nH]c2c(c(=O)c1-c1ccc(Cl)cc1)CCCCC2`, in [1], the IC50 was determined as 3800 nM.

On to `Cc1[nH]c2c(c(=O)c1-c1ccc(-c3ccc(OC(F)(F)F)cc3)nc1)COCC2`, for which the concentration for half-maximal inhibition (IC50) in [1] is greater than 10000 nM.

Turning to `Cc1[nH]c2c(c(=O)c1-c1ccc(Oc3ccc(OC(F)(F)F)cc3)cc1)COCC2`, the IC50 in data set [1] came to 528 nM. Moreover, the fraction unbound at 6 h in data set [2] was 0.0065. This compound returned a logD in data set [3] of 3.8. Also, the concentration in solution in [4] (solubility) came to 140 µM (≈ 58.4 µg/mL). Further, the hepatocyte CLint in data set [5] stood at 2.63 µL/min/1e6 cells. Further, the microsomal CLint in [6] was less than 3 µL/min/mg.
